Assay results reported in patent publication US20230358769A1, “CLOT […] FOR QUALITY MONITORING OF PLATELET PRODUCTS” (THE GOVERNMENT OF THE UNITED STATES AS REPRESENTED BY THE …, priority 2022, published 2023).
Where a SMILES comes first, the peptide text is derived from it. Bridges are numbered along the chain shown (N, C = ends). [ ]: non-standard residue; d: D form. hArg = N=C(N)NCCCC[C@H](N)C(=O)O; Mpa = O=C(O)CCS

How the values were obtained:
[1] = tested on: platelets in platelet rich plasma (PRP); test: Microplate clot retraction method (thrombin-activated platelet rich plasma, O.D. 350 nm kinetics); format: cell-based, human; settings: for clot densification phase (phase 3) of the reaction kinetic curve: at the highest levels of inhibition
Description: Whole blood was collected in acid citrate dextrose tubes (ACD-A; BD Vacutainer, Franklin Lakes NJ) from healthy volunteers in accordance with a U.S. Army Research and Development Command approved protocol (USAISR L-20-003). Whole blood was centrifuged at 200×g for 10 minutes and platelet rich plasma (PRP) was obtained from the upper layer. Platelet poor plasma (PPP) was recovered from the remaining volume of the ACD-A tube after centrifugation at 3,000 times gravity (×g) for 10 minutes. To obtain apheresis platelets, the Trima Accel 7 (Terumo, Lakewood, CO) system was used for collection in either autologous plasma or Isoplate (65% Isoplate, 35% plasma). Platelet concentrations were determined on an Advia® 2120i (Siemens, Malvern, PA) and adjusted to 250,000 platelets/μL with autologous PPP, unless indicated otherwise.
Individual wells of a 96-well polystyrene microplate were coated with 150 μL of anti-adherence rinse solution (Stem Cell Technologies, Vancouver, Canada) and the microplate was centrifuged for 10 minutes at 1.300×g. The anti-adherence coating solution was aspirated and the coated wells were washed once with phosphate buffered saline. After washing, one side of each coated well was scored with an 18 Gauge (Ga) needle. Five μL of 30 U/ml thrombin (Haematologic Technologies, East Junction, VT) were added to each coated and scored well to initiate platelet aggregation, clot formation, and subsequent clot retraction.
PRP was supplemented with 6 mM CaCl2 (Sigma, St. Louis, MO) before aliquoting 180 μL to wells that were adjacent to the thrombin-containing (reaction) wells. The transfer of PRP to adjacent (staging) wells allowed for simultaneous transfer of multiple samples to the reaction wells using a multichannel pipette. The microplate was then loaded into a Synergy™ Neo2 microplate reader, and 145 μL of re-calcified PRP were transferred from the staging well to the reaction well. The plate scan was immediately started after addition of PRP. The plate scan protocol consisted of: temperature=37° C., assay duration=30 minutes, read interval=5 seconds, kinetic absorbance wavelength=350 nm, well scan absorbance wavelength=350 nm. After the plate scan protocol was completed, the plate was discarded and the data were exported as text files.
When indicated, the concentrations of platelets, CaCl2, or thrombin were varied to identify the optimal assay conditions for clot retraction. Additionally, PRP was pre-treated with increasing concentrations of inhibitors to platelet integrin αIIbβ3 (Eptifibatide, Sigma, St. Louis, MO), platelet-fibrin interaction (RGDS, Cayman Chemical, Ann Arbor, MI), and Src-family kinase (PP2, Sigma). Vehicle controls were the solvent used for the respective compound. Each treatment was performed in at least duplicate technical replicates.
Text files containing the optical density (O.D.) values were imported into R v4.0.5. Parameters of Rate of Clot Formation, Rate of Clot Retraction, Maximum O.D., Retraction Coefficient, Time to Maximum O.D., and Retraction Time were derived for each sample. Algorithms to extract parameters are described in Table 2, below.
Briefly, for Rates of Clot Formation and Retraction, a sliding window procedure was used to fit a linear model to a subset of 20 consecutive data points (k=20). The slope coefficient was extracted from each linear model and stored in an array. The Rates of Clot Formation and Retraction were defined as the maximum and minimum values, respectively, in the array. […] The data points represent donors and horizontal bars depicts medians. The Maximum and Minimum O.D. values were defined as the maximum and minimum readings, respectively. The Retraction Coefficient was defined as the difference between the Maximum and Minimum O.D. values, divided by the Maximum O.D. value. The Time to Maximum O.D. was defined as the time-point in which the Maximum O.D. value was observed. […]

[2] = tested on: platelet rich plasma (PRP); test: Clot retraction assay in 2% Tween coated wells (optimization of assay agonist); format: cell-based, human; settings: 0.5, 1, 2 and 4 NIH units of thrombin, n=4
Description: Bottom halves of the individual wells in a 96-well plate were coated with 2% Tween and left in a vertical position inside a modified chamber for 90 minutes at room temperature. The coating solutions were then aspirated and allowed to air dry under the hood for 15 minutes. Whole blood collected in ACD tubes from healthy volunteers was subjected to centrifugation at 200×g for 10 minutes to obtain platelet rich plasma (PRP), followed by a second centrifugation at 3000×g for 10 minutes to obtain platelet poor plasma (PPP). When needed, platelet concentrations in the PRP were adjusted to desired levels using PPP. PRP samples (145 μL) were recalcified with 20 mM CaCl2 were then transferred into wells containing five μL of two NIH U/mLs of Thrombin. Further, the changes in absorbance during clot gelation and retraction were tracked at 350 nm using a microplate spectrophotometer for 90 minutes at 37° C.
To evaluate the appropriate thrombin concentration for the best outcome in the assay, we tested at 0.5, 1, 2 and 4 NIH units of thrombin (n=4). Once coagulation was initiated with thrombin, the clotting kinetics were characterized by a very short lag phase of initiation, a log phase of fibrin polymerization, a fibrin densification phase of platelet mediated fibrin remodeling, and a final rapid CR phase of declining absorbance. […]

Compound: C=C1[C@@H](C)[C@H]2[C@H](Cc3ccccc3)NC(=O)[C@]23[C@H](OC(C)=O)/C=C/[C@@](C)(O)C(=O)[C@@H](C)C/C=C/[C@H]3[C@@H]1O [cytochalasin D]
- all parameters except Rate of Clot Formation and Maximum O.D., differences among treatment levels ([1]; cytochalasin D pretreatment, n=5, p<0.001): significant differences
- dose dependence of the differences among conditions ([1]; cytochalasin D pretreatment, greatest departure from vehicle at highest concentrations): followed the dosing level

Compound: N=C(N)NCCCC[C@@H]1NC(=O)CCSSC[C@@H](C(N)=O)NC(=O)[C@@H]2CCCN2C(=O)[C@H](Cc2c[nH]c3ccccc23)NC(=O)[C@H](CC(=O)O)NC(=O)CNC1=O [Eptifibatide] ([Mpa][hArg]GDWPC-NH2; disulfide 1-7)
- clot densification phase (phase 3) of the reaction kinetic curve [1]: absent or greatly diminished

Compound: thrombin
- CR at 60 minutes after clot initiation [2]: 100%
- effect of thrombin concentration on the method's results ([1]; thrombin concentration varied, n=5): significantly affected the method's results in a concentration dependent manner

Compound: CC(C)(C)n1nc(-c2ccc(Cl)cc2)c2c(N)ncnc21 [PP2]
- clot densification phase (phase 3) of the reaction kinetic curve [1]: absent or greatly diminished

Compound: [Ca+2].[Cl-].[Cl-] [CaCl2, Calcium chloride]
- clot formation and clot retraction at the highest CaCl2 levels ([1]; CaCl2 concentration varied, n=5, highest levels): clot formation, but failure in clot retraction
- differences in parameters across CaCl2 concentrations ([1]; range of 0 to 6 mM CaCl2): No differences

Compound: Arg-Gly-Asp-Ser (RGDS; printed: Arg-Gly-Asp-Ser)
- clot densification phase (phase 3) of the reaction kinetic curve [1]: absent or greatly diminished
